Data reported in patent publication US7008945B1, “Amide derivatives” (AstraZeneca AB, priority 1999, dated 2006).

Key:
[1] = molecular target: T1, p38α (Homo sapiens, UniProt Q16539); assay: In vitro enzyme assay, p38α; format: biochemical; conditions: read-out: IC50 against p38α
T1 construct: c-myc (N); 6His (N); made in house; host or cells: E. coli (PET vectors)
Method: (§1) The ability of compounds of the invention to inhibit the enzyme p38 kinase was assessed. Activity of test compounds against each of the p38α and p38β isoforms of the enzyme was determined. […]
(§2) Test compounds were solubilised in DMSO and 10 μl of a 1:10 diluted sample in ‘Kinase Buffer’ was added to a well in a Microtiter plate. […] The precipitated protein was phosphorylated by p38 kinase and test compounds were assessed for their ability to inhibit this phosphorylation. The plates were filtered using a Canberra Packard Unifilter and washed with 2% TCA, dried overnight and counted on a Top Count scintillation counter.
(§3) Test compounds were tested initially at a single dose and active compounds were retested to allow IC50 values to be determined.

[2] = system: TNFα production; assay: Human Whole Blood test (LPS-stimulated TNFα production); format: cell-based; conditions: inhibition of TNFα production in LPS-stimulated human whole blood
Method: The ability of the compounds of this invention to inhibit TNFα production was also assessed in a human whole blood assay. Human whole blood secretes TNFα when stimulated with LPS. This property of blood forms the basis of an assay which is used as a secondary test for compounds which profile as active in the PBMC test.
Heparinised (10 units/ml) human blood was obtained from volunteers. 160 μl whole blood were added to 96 well round-bottom plates (Corning 25850). Compounds were solubilised and serially diluted in RPMI 1640 medium (Gibco) supplemented with 50 units/ml penicillin, 50 μg/ml streptomycin and 2 mM glutamine, as detailed above. 20 μl of each test concentration was added to appropriate wells (triplicate cultures), 20 μl of RPMI 1640 medium supplemented with antibiotics and glutamine was added to control wells. Plates were incubated for 30 minutes at 37° C. (humidified incubator), prior to addition of 20 μl LPS (final concentration 10 μg/ml). RPMI 1640 medium was added to control wells. Six “LPS alone” and four “medium alone” controls were included on each plate. A known TNFα synthesis/secretion inhibitor was included in each test. Plates were incubated for 6 hours at 37° C. (humidified incubator). Plates were centrifuged (2000 rpm for 10 minutes) and 100 μl plasma removed and stored at −70° C. (Corning 25850 plates). TNFα levels were measured by ELISA (see WO92/10190 and Current Protocols in Molecular Biology, vol 2 by Frederick M. Ausbel et al., John Wiley and Sons Inc.). The paired antibodies that were used in the ELIZA were obtained from R&D Systems (catalogue nos. MAB610 anti-human TNFA coating antibody, BAF210 biotinylated anti-human TNFα detect antibody).

[3] = molecular target: T2, p38β (Homo sapiens, UniProt Q15759); assay: In vitro enzyme assay, p38β; format: biochemical; conditions: read-out: IC50 against p38β
T2 construct: Human recombinant p38α and p38β isoforms were produced as 5′ c-myc, 6His tagged proteins; fused on or other part: N-terminal c-myc and 6His tags
T2 sequence (Q15759 whole entry, the tested form may be a part, canonical isoform): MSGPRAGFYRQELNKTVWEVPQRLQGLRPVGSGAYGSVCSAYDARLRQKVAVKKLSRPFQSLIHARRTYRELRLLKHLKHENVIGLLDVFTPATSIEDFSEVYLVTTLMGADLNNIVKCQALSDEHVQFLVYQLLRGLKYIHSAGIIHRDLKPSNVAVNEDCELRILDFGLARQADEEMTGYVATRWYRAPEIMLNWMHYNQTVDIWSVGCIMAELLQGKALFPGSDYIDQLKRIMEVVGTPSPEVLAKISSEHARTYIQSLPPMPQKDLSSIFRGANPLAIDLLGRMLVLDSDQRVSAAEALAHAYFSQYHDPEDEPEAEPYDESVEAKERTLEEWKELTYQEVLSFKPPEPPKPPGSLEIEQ
Method: as §1, §2, §3

T1 sequence (Q16539 whole entry): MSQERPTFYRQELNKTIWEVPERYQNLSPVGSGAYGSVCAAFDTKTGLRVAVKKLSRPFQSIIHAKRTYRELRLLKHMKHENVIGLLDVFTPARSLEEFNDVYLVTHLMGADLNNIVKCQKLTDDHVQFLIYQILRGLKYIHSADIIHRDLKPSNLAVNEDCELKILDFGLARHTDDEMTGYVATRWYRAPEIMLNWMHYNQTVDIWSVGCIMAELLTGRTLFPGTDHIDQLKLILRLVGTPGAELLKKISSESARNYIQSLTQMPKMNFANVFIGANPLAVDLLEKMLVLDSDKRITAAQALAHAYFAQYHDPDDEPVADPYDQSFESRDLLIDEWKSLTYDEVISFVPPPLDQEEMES

IC50 [1] [µM] | IC50 [2] [µM] | IC50 [3] [µM] | SMILES
~0.2 | ~2 |  | Cc1ccc(NC(=O)c2ccnc(N3CCOCC3)c2)cc1-n1cnc2ccc(N(C)CCCN(C)C)cc2c1=O [6-[N-(3-dimethylaminopropyl)-N-methylamino]-3-[2-methyl-5-(2-morpholinopyrid-4-ylcarbonylamino)phenyl]-3,4-dihydroquinazolin-4-one]
 | ~5 | ~0.05 | CN(C)CCCN(C)c1ccc2ncn(-c3cccc(NC(=O)c4ccnc(N5CCOCC5)c4)c3)c(=O)c2c1 [6-[N-(3-dimethylaminopropyl)-N-methylamino]-3-[5-(2-morpholinopyrid-4-ylcarbonylamino)phenyl]-3,4-dihydroquinazolin-4-one]
~0.1 | ~7 |  | Cc1ccc(NC(=O)c2ccnc(N3CCOCC3)c2)cc1-n1cnc2c(N(C)CCCN(C)C)cccc2c1=O [8-[-(3-dimethylaminopropyl)-N-methylamino]-3-[2-methyl-5-(2-morpholinopyrid-4-ylcarbonylamino)phenyl]-3,4-dihydroquinazolin-4-one]
